From patent US10251395B2, “Substituted furano-/thienocycloalkylamino-2-pyrimidine derivatives and use thereof for controlling undesired plant growth” (Bayer CropScience Aktiengesellschaft, priority 2015, dated 2019)

What was measured:
[1] = tested on: Echinochloa crus-galli; test: Pre-emergence herbicidal effect; assay type: in vivo; conditions: scored visually after 3 weeks
In short: (§1)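 Seeds sown in sandy loam in wood-fiber pots and covered with soil; WP or EC formulations applied to the soil surface as aqueous suspension or emulsion at 600 to 800 L/ha water with 0.2% wetting agent. Greenhouse, 3 weeks; damage scored visually versus untreated controls (100% = plants died, 0% = like control).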

[2] = tested on: Alopecurus myosuroides; test: Pre-emergence herbicidal effect; assay type: in vivo; conditions: scored visually after 3 weeks
In short: as §1

[3] = tested on: Lolium multiflorum; test: Pre-emergence herbicidal effect; assay type: in vivo; conditions: scored visually after 3 weeks
In short: as §1

[4] = tested on: Abutilon theophrasti; test: Pre-emergence herbicidal effect; assay type: in vivo; conditions: Dosage 320 g/ha, scored visually after 3 weeks
In short: as §1

[5] = tested on: Amaranthus retroflexus; test: Pre-emergence herbicidal effect; assay type: in vivo; conditions: scored visually after 3 weeks
In short: as §1

[6] = tested on: Matricaria inodora; test: Pre-emergence herbicidal effect; assay type: in vivo; conditions: scored visually after 3 weeks
In short: as §1

[7] = tested on: Stellaria media; test: Pre-emergence herbicidal effect; assay type: in vivo; conditions: scored visually after 3 weeks
In short: as §1

[8] = tested on: Setaria viridis; test: Pre-emergence herbicidal effect; assay type: in vivo; conditions: scored visually after 3 weeks
In short: as §1

[9] = tested on: Viola tricolor; test: Pre-emergence herbicidal effect; assay type: in vivo; conditions: scored visually after 3 weeks
In short: as §1

[10] = tested on: Veronica persica; test: Pre-emergence herbicidal effect; assay type: in vivo; conditions: scored visually after 3 weeks
In short: as §1

[11] = tested on: Polygonum convolvulus; test: Pre-emergence herbicidal effect; assay type: in vivo; conditions: scored visually after 3 weeks
In short: as §1

[12] = tested on: Ipomoea purpurea; test: Pre-emergence herbicidal effect; assay type: in vivo; conditions: Dosage 320 g/ha, scored visually after 3 weeks
In short: as §1

[13] = logP (HCOOH); assay type: physicochemical; conditions: HCOOH
From the text: Table 2 (physicochemical characterization of selected synthesis examples)

[14] = tested on: Echinochloa crus-galli; test: Post-emergence herbicidal effect; assay type: in vivo; conditions: assessed visually after about 3 weeks vs untreated controls
In short: (§2)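 Visual % damage vs untreated plants, ~3 wk after spraying (100% = dead, 0% = as control). Post-emergence foliar spray at one-leaf stage; WP/EC in water, 600–800 L/ha + 0.2% wetting agent; sandy loam, greenhouse.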

[15] = tested on: Alopecurus myosuroides; test: Post-emergence herbicidal effect; assay type: in vivo; conditions: assessed visually after about 3 weeks vs untreated controls
In short: as §2

[16] = tested on: Lolium multiflorum; test: Post-emergence herbicidal effect; assay type: in vivo; conditions: assessed visually after about 3 weeks vs untreated controls
In short: as §2

[17] = tested on: Abutilon theophrasti; test: Post-emergence herbicidal effect; assay type: in vivo; conditions: 320 g/ha, assessed visually after about 3 weeks vs untreated controls
In short: as §2

[18] = tested on: Amaranthus retroflexus; test: Post-emergence herbicidal effect; assay type: in vivo; conditions: assessed visually after about 3 weeks vs untreated controls
In short: as §2

[19] = tested on: Stellaria media; test: Post-emergence herbicidal effect; assay type: in vivo; conditions: assessed visually after about 3 weeks vs untreated controls
In short: as §2

[20] = tested on: Setaria viridis; test: Post-emergence herbicidal effect; assay type: in vivo; conditions: assessed visually after about 3 weeks vs untreated controls
In short: as §2

[21] = tested on: Viola tricolor; test: Post-emergence herbicidal effect; assay type: in vivo; conditions: assessed visually after about 3 weeks vs untreated controls
In short: as §2

[22] = tested on: Veronica persica; test: Post-emergence herbicidal effect; assay type: in vivo; conditions: assessed visually after about 3 weeks vs untreated controls
In short: as §2

[23] = tested on: Polygonum convolvulus; test: Post-emergence herbicidal effect; assay type: in vivo; conditions: assessed visually after about 3 weeks vs untreated controls
In short: as §2

[24] = tested on: Avena fatua; test: Post-emergence herbicidal effect; assay type: in vivo; conditions: 320 g/ha, assessed visually after about 3 weeks vs untreated controls
In short: as §2

[25] = tested on: Ipomoea purpurea; test: Post-emergence herbicidal effect; assay type: in vivo; conditions: 320 g/ha, assessed visually after about 3 weeks vs untreated controls
In short: as §2

Nc1nc(N[C@@H]2CCCc3sccc32)ncc1C(F)(F)F [compound 46]
ECHCG pre-emergence efficacy (herbicidal activity) ([1]; Dosage 80 g/ha): 100%
ECHCG pre-emergence efficacy (herbicidal activity) ([1]; Dosage 320 g/ha): 100%
ALOMY pre-emergence efficacy (herbicidal activity) ([2]; Dosage 80 g/ha): 100%
ALOMY pre-emergence efficacy (herbicidal activity) ([2]; Dosage 320 g/ha): 100%
LOLMU pre-emergence efficacy (herbicidal activity) ([3]; Dosage 80 g/ha): 80%
LOLMU pre-emergence efficacy (herbicidal activity) ([3]; Dosage 320 g/ha): 100%
ABUTH pre-emergence efficacy (herbicidal activity) [4]: 80%
AMARE pre-emergence efficacy (herbicidal activity) ([5]; Dosage 80 g/ha): 100%
AMARE pre-emergence efficacy (herbicidal activity) ([5]; Dosage 320 g/ha): 100%
MATIN pre-emergence efficacy (herbicidal activity) ([6]; Dosage 80 g/ha): 100%
MATIN pre-emergence efficacy (herbicidal activity) ([6]; Dosage 320 g/ha): 100%
STEME pre-emergence efficacy (herbicidal activity) ([7]; Dosage 80 g/ha): 100%
STEME pre-emergence efficacy (herbicidal activity) ([7]; Dosage 320 g/ha): 100%
SETVI pre-emergence efficacy (herbicidal activity) ([8]; Dosage 80 g/ha): 100%
SETVI pre-emergence efficacy (herbicidal activity) ([8]; Dosage 320 g/ha): 100%
VIOTR pre-emergence efficacy (herbicidal activity) ([9]; Dosage 80 g/ha): 100%
VIOTR pre-emergence efficacy (herbicidal activity) ([9]; Dosage 320 g/ha): 100%
VERPE pre-emergence efficacy (herbicidal activity) ([10]; Dosage 80 g/ha): 100%
VERPE pre-emergence efficacy (herbicidal activity) ([10]; Dosage 320 g/ha): 100%
POLCO pre-emergence efficacy (herbicidal activity) ([11]; Dosage 80 g/ha): 90%
POLCO pre-emergence efficacy (herbicidal activity) ([11]; Dosage 320 g/ha): 100%
PHBPU pre-emergence efficacy (herbicidal activity) [12]: 100%
logP (HCOOH) [13]: oily; logP (HCOOH): 1.91; 1H NMR (CDCl3, 400 MHZ, δ in ppm): 1.80-1.95 (m,
post-emergence efficacy ECHCG ([14]; 80 g/ha): 100%
post-emergence efficacy ECHCG ([14]; 320 g/ha): 100%
post-emergence efficacy ALOMY ([15]; 80 g/ha): 90%
post-emergence efficacy ALOMY ([15]; 320 g/ha): 100%
post-emergence efficacy LOLMU ([16]; 80 g/ha): 80%
post-emergence efficacy LOLMU ([16]; 320 g/ha): 100%
post-emergence efficacy ABUTH [17]: 40%
post-emergence efficacy AMARE ([18]; 80 g/ha): 100%
post-emergence efficacy AMARE ([18]; 320 g/ha): 100%
post-emergence efficacy STEME ([19]; 80 g/ha): 100%
post-emergence efficacy STEME ([19]; 320 g/ha): 100%
post-emergence efficacy SETVI ([20]; 80 g/ha): 90%
post-emergence efficacy SETVI ([20]; 320 g/ha): 90%
post-emergence efficacy VIOTR ([21]; 80 g/ha): 80%
post-emergence efficacy VIOTR ([21]; 320 g/ha): 100%
post-emergence efficacy VERPE ([22]; 80 g/ha): 80%
post-emergence efficacy VERPE ([22]; 320 g/ha): 100%
post-emergence efficacy POLCO ([23]; 80 g/ha): 90%
post-emergence efficacy POLCO ([23]; 320 g/ha): 90%
post-emergence efficacy AVEFA [24]: 80%
post-emergence efficacy PHBPU [25]: 80%
